Laboratory results from patent US10112929B2, “Lactams as inhibitors of rock” (BRISTOL-MYERS SQUIBB COMPANY, priority 2015, dated 2018).
Counter-ions that a name gives are not always drawn.

These compounds were tested against ROCK2 (Homo sapiens (Human), UniProt O75116) (assay: biochemical).
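Also: rho kinase enzyme reaction halted with EDTA, phospho- and non-phospho peptide separated for read-out, kinase activity inhibition derived across a dose-response series, DMSO under 2%.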

Sequence of ROCK2 (O75116 whole entry, species assumed): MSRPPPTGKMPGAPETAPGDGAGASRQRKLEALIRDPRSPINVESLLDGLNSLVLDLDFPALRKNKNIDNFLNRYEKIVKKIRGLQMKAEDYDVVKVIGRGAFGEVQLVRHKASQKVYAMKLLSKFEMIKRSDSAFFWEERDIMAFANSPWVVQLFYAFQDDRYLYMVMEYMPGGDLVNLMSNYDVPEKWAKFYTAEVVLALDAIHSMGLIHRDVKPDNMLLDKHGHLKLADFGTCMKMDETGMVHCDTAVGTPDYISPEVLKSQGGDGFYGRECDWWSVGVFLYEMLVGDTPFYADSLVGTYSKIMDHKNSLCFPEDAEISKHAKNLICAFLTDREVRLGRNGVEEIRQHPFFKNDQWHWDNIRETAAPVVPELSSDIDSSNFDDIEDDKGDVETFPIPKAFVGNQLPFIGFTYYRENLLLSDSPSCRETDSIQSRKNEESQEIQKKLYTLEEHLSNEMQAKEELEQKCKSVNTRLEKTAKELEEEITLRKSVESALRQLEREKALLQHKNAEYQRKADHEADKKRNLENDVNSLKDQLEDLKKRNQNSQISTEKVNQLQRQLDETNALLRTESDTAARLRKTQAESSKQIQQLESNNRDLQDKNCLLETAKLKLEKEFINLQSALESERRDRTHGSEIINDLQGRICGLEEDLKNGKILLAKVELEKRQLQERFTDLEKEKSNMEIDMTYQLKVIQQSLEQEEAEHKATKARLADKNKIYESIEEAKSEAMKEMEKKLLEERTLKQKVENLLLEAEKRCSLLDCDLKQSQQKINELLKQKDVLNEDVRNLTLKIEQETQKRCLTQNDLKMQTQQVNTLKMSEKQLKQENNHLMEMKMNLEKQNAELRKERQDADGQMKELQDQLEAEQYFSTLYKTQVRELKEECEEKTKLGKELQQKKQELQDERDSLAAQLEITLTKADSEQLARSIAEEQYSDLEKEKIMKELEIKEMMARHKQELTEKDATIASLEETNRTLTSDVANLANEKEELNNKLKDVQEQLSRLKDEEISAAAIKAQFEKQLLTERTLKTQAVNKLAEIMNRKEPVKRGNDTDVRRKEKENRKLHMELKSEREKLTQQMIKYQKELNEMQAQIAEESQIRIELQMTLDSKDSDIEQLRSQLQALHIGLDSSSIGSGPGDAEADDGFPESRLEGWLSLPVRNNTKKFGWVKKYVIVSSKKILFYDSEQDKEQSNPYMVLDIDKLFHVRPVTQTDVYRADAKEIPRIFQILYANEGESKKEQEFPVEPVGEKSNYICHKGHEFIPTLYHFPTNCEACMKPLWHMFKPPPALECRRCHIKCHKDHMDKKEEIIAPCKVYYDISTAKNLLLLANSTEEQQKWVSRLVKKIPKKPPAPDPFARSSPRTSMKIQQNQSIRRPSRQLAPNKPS

Row | SMILES | IC50 [µM]
1 | COc1ccc(NC2CCN(c3ccc(-c4cn[nH]c4)c(OC)c3)C2=O)cc1F (single isomer, unassigned) [Example 141, 3-((3-fluoro-4-methoxyphenyl)amino)-1-(3-methoxy-4-(1H-pyrazol-4-yl)phenyl) pyrrolidin-2-one] | 0.1 to 2.2
2 | COc1cccc(NC2CCN(c3ccc(-c4ccnc5[nH]ccc45)c(C)n3)C2=O)c1 (single isomer, unassigned) [Example 119, 3-((3-methoxyphenyl)amino)-1-(6-methyl-5-(1H-pyrrolo[2,3-b]pyridin-4-yl)pyridin-2-yl)pyrrolidin-2-one] | 0.1 to 2.2
3 | COc1cc(NC2CCN(c3cc(F)c(-c4cn[nH]c4)cc3F)C2=O)ccc1F (single isomer, unassigned) [Example 350, 1-(2,5-difluoro-4-(1H-pyrazol-4-yl)phenyl)-3-((4-fluoro-3-methoxyphenyl)amino)pyrrolidin-2-one] | 0.1 to 2.2
4 | O=C1C(Nc2cccc(OC(F)F)c2)CCN1c1ccc(-c2cn[nH]c2)cn1 (single isomer, unassigned) [Example 321, 1-(5-(1H-pyrazol-4-yl)pyridin-2-yl)-3-((3-(difluoromethoxy)phenyl)amino) pyrrolidin-2-one] | 0.1 to 2.2
5 | COc1cc(NC2CCN(c3ccc(-c4cn[nH]c4)c(OCCN(C)C)c3)C2=O)ccc1F (racemic) [Example 346, 1-(3-(2-(dimethylamino)ethoxy)-4-(1H-pyrazol-4-yl)phenyl)-3-((4-fluoro-3-methoxyphenyl)amino)pyrrolidin-2-one] | 0.1 to 2.2
6 | COc1c(F)cccc1NC1CCN(c2ccc(-c3cn[nH]c3)cn2)C1=O (single isomer, unassigned) [Example 90, 1-(5-(1H-pyrazol-4-yl)pyridin-2-yl)-3-((3-fluoro-2-methoxyphenyl)amino)pyrrolidin-2-one] | 0.1 to 2.2
7 | COc1ccc(NC2CCN(c3ccc(-c4cn[nH]c4)cc3)C2=O)c(F)c1 (single isomer, unassigned) [Example 19, 1-(4-(1H-pyrazol-4-yl)phenyl)-3-((2-fluoro-4-methoxyphenyl)amino)pyrrolidin-2-one] | 0.1 to 2.2
8 | COc1nc(N2CCC(N3CCC(C(F)(F)F)CC3)C2=O)ccc1-c1cn[nH]c1 (racemic) [Example 285, 1-(6-methoxy-5-(1H-pyrazol-4-yl)pyridin-2-yl)-3-(4-(trifluoromethyl)piperidin-1-yl)pyrrolidin-2-one hydrochloride] | 0.1 to 2.2
9 | COc1cc(NC2CCN(c3ccc(-c4cn[nH]c4)c(C(F)F)c3)C2=O)ccc1F (single isomer, unassigned) [Example 180, 1-(3-(difluoromethyl)-4-(1H-pyrazol-4-yl)phenyl)-3-((4-fluoro-3-methoxyphenyl)amino)pyrrolidin-2-one] | 0.1 to 2.2
10 | COc1cccc(NC2CCN(c3ccc(-c4cn[nH]c4)c(CO)c3)C2=O)c1 (racemic) [Example 187, 1-(3-(hydroxymethyl)-4-(1H-pyrazol-4-yl)phenyl)-3-((3-methoxyphenyl)amino) pyrrolidin-2-one] | 0.1 to 2.2
11 | COc1nc(N2CCC(N3CC[C@@H](N(C)C)C3)C2=O)ccc1-c1cn[nH]c1 (mixture of isomers) [Example 293, (3R)-3-(dimethylamino)-1′-(6-methoxy-5-(1H-pyrazol-4-yl)pyridin-2-yl)-[l,3′-bipyrrolidin]-2′-one] | 0.1 to 2.2
12 | CCOc1cc(N2CCC(Nc3cc(F)cc(OC)c3)C2=O)ccc1-c1cn[nH]c1 (single isomer, unassigned) [Example 37, 1-(3-ethoxy-4-(1H-pyrazol-4-yl)phenyl)-3-((3-fluoro-5-methoxyphenyl)amino)pyrrolidin-2-one] | 0.1 to 2.2
13 | COc1cc(F)cc(NC2CCN(c3ccc(-c4cn[nH]c4)cc3F)C2=O)c1 (single isomer, unassigned) [Example 338, 1-(2-fluoro-4-(1H-pyrazol-4-yl)phenyl)-3-((3-fluoro-5-methoxyphenyl)amino) pyrrolidin-2-one] | 0.01 to 0.1
14 | COc1ccc(C(N)=O)c(NC2CCN(c3ccc(-c4cn[nH]c4)cc3)C2=O)c1 (racemic) [Example 324, 2-((1-(4-(1H-pyrazol-4-yl)phenyl)-2-oxopyrrolidin-3-yl)amino)-4-methoxybenzamide] | 0.1 to 2.2

The next lines start with the values.

Row | IC50 [µM] | SMILES
15 | < 0.01 | O=C1C(Nc2cccc(OC(F)F)c2)CCN1c1ccc(-c2cn[nH]c2)cc1 (single isomer, unassigned) [Example 232, 1-(4-(1H-pyrazol-4-yl)phenyl)-3-((3-(difluoromethoxy)phenyl)amino) pyrrolidin-2-one]
16 | 0.01 to 0.1 | O=C1C(Nc2cccc(OC(F)(F)F)c2)CCN1c1ccc(-c2cn[nH]c2)cc1 (stereo not shown) [Example 8, 1-(4-(1H-pyrazol-4-yl)phenyl)-3-((3-(trifluoromethoxy)phenyl)amino)pyrrolidin-2-one]
17 | 0.01 to 0.1 | Cc1nc(N2CCC(Nc3cccc(OC(F)F)c3)C2=O)ccc1-c1cn[nH]c1 (single isomer, unassigned) [Example 201, 3-((3-(difluoromethoxy)phenyl)amino)-1-(6-methyl-5-(1H-pyrazol-4-yl)pyridin-2-yl)pyrrolidin-2-one]
18 | 0.01 to 0.1 | CCOc1cc(N2CCC(Nc3cccc(OC)c3)C2=O)ccc1-c1cn[nH]c1 (single isomer, unassigned) [Example 35, 1-(3-ethoxy-4-(1H-pyrazol-4-yl)phenyl)-3-((3-methoxyphenyl)amino)pyrrolidin-2-one]
19 | < 0.01 | COc1cccc(NC2CCN(c3ccc(-c4cn[nH]c4)c(OC)n3)C2=O)c1C (stereo not shown) [Example 117, 3-((3-Methoxy-2-methylphenyl)amino)-1-(6-methoxy-5-(1H-pyrazol-4-yl)pyridin-2-yl)pyrrolidin-2-one]
20 | < 0.01 | COc1c(F)cccc1NC1CCN(c2ccc(-c3cn[nH]c3)cn2)C1=O (single isomer, unassigned) [Example 89, 1-(5-(1H-pyrazol-4-yl)pyridin-2-yl)-3-((3-fluoro-2-methoxyphenyl)amino) pyrrolidin-2-one]
21 | < 0.01 | COc1cc(NC2CCN(c3ccc(-c4cn[nH]c4)cc3)C2=O)ccc1F (single isomer, unassigned) [Example 18, 1-(4-(1H-pyrazol-4-yl)phenyl)-3-((4-fluoro-3-methoxyphenyl)amino)pyrrolidin-2-one]
22 | 0.01 to 0.1 | COCc1cc(N2CCC(Nc3cc(F)cc(OC)c3)C2=O)ccc1-c1cn[nH]c1 (single isomer, unassigned) [Example 186, 3-((3-fluoro-5-methoxyphenyl)amino)-1-(3-(methoxymethyl)-4-(1H-pyrazol-4-yl)phenyl)pyrrolidin-2-one]
23 | 0.01 to 0.1 | COc1cccc(NC2CCN(c3ccc(-c4ccnc(N)n4)cc3)C2=O)c1 (single isomer, unassigned) [Example 78, 1-(4-(2-aminopyrimidin-4-yl)phenyl)-3-((3-methoxyphenyl)amino)pyrrolidin-2-one]
24 | 0.01 to 0.1 | COc1c(F)cccc1NC1CCN(c2ccc(-c3cn[nH]c3)c(OC(F)F)c2)C1=O (single isomer, unassigned) [Example 33, 1-(3-(difluoromethoxy)-4-(1H-pyrazol-4-yl)phenyl)-3-((3-fluoro-2-methoxyphenl)amino)pyrrolidin-2-one]
25 | < 0.01 | COc1cccc(NC2CCN(c3ccc(-c4cn[nH]c4)cn3)C2=O)c1 (single isomer, unassigned) [Example 85, 1-(5-(1H-pyrazol-4-yl)pyridin-2-yl)-3-((3-methoxyphenyl)amino)pyrrolidin-2-one]
